Experimental data as given in article PMC12040969, “Design, synthesis, in silico studies, and apoptotic antiproliferative activity of novel thiazole-2-acetamide derivatives as tubulin polymerization inhibitors” (Frontiers in Chemistry, 2025).
One block for each compound: values may come before it.

Assays:
pancreatic - MDAMB-231 = assay: Antiproliferative assay (MTT) MDAMB-231; settings: read-out: Antiproliferative activity IC50 ± SEM (µM) MDAMB-231; MDAMB-231, MTT
- MDAMB-231 = assay: Antiproliferative assay (MTT) MDAMB-231
[1] = Cell viability assay (MTT), normal cells; format: cell-based; settings: human, MCF-10A normal mammary gland epithelial cells, four-day incubation
Protocol: The impact of novel compounds 10a-o and 13a-e on cell viability was examined using the MCF-10A (human mammary gland epithelial) normal cell line. The MTT test was employed to assess the cell viability of the novel compounds after a four-day incubation with MCF-10A cells ([El-Sherief et al., 2019]; [Ramadan et al., 2020]).
The effects of compounds 10a-o and 13a-e on cell viability were assessed using the human mammary gland epithelial normal cell line (MCF-10A). The MTT assay assessed the cell viability of compounds 10a-o and 13a-e following a four-day incubation with MCF-10A cells ([El-Sherief et al., 2019]; [Ramadan et al., 2020]). Check Supplementary Appendix A for additional information.
4.2. Biological evaluation
4.2.1 Cell Viability assay (MTT assay)
MTT assay was performed to investigate the effect of the synthesized compounds on mammary epithelial cells (MCF-10A). The cells were propagated in medium consisting of Ham's F-12 medium/ Dulbecco's modified Eagle's medium (DMEM) (1:1) supplemented with 10% foetal calf serum, 2 mM glutamine, insulin (10 μg/mL), hydrocortisone (500 ng/mL) and epidermal growth factor (20 ng/mL). Trypsin ethylenediamine tetra acetic acid (EDTA) was used to passage the cells after every 2-3 days. 96-well flat-bottomed cell culture plates were used to seed the cells at a density of 10^4 cells mL-1. The medium was aspirated from all the wells of culture plates after 24 h followed by the addition of synthesized compounds (in 200 μL medium to yield a final concentration of 0.1% (v/v) dimethyl sulfoxide) into individual wells of the plates.
Four wells were designated to a single compound. The plates were allowed to incubate at 37°C for 96 h. Afterwards, the medium was aspirated and 3-[4,5-dimethylthiazol-2-yl]-2,5-diphenyltetrazolium bromide (MTT) (0.4 mg/mL) in medium was added to each well and subsequently incubated for 3 h. The medium was aspirated and 150 μL dimethyl sulfoxide (DMSO) was added to each well. The plates were vortexed followed by the measurement of absorbance at 540 nm on a microplate reader. The results were presented as inhibition (%) of proliferation in contrast to controls comprising 0.1%

[2] = test system: four human cancer cell lines (HCT-116, PC-3, MCF-7, MDAMB-231); assay: Antiproliferative assay, mean of four cell lines (GI50); settings: for Reduced potency compared to doxorubicin (GI50) / Reduced potency compared to sorafenib (GI50): GI50 ratio; for IC50: Homo sapiens, read-out: GI50 (average IC50)
breast - MCF-7 = assay: Antiproliferative assay (MTT) MCF-7; settings: for IC50: read-out: Antiproliferative activity IC50 ± SEM (µM) MCF-7, MCF-7, MTT
prostatic - PC-3 = assay: Antiproliferative assay (MTT) PC-3; settings: for IC50: read-out: Antiproliferative activity IC50 ± SEM (µM) PC-3, PC-3, MTT
tubulin = assay: Tubulin polymerization inhibition assay (Cytoskeleton kit);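 for all read-outs here: Cell-free tubulin polymerization read by fluorescent reporter enhancement over a 30 min reaction, with the compound-free kit control taken as 100% activity and inhibition relative to it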; settings: for Tub %inh / Tub. enzyme inhibition assay %inhibition: 30 min; for Tub %inh: YB-EGY run; for Tub K.Activity: EC = 120, YB-EGY run; for IC50: read-out: Tubulin inhibition IC50 ± SEM, triplicate for each tested concentration; for Tub. enzyme inhibition assay %inhibition: codes 522-537 run; for Tub. enzyme inhibition assay K. Activity: control = 120, codes 522-537 run
colon - HCT-116 = assay: Antiproliferative assay (MTT) HCT-116; settings: for IC50: read-out: Antiproliferative activity IC50 ± SEM (µM) HCT-116, HCT-116, MTT

IC50 (pancreatic - MDAMB-231): 8 ± 0.7 µM | Reduced potency compared to doxorubicin (GI50) [2]: at least 2.5 fold | Reduced potency compared to sorafenib (GI50) [2]: ≥ 1.5 fold | IC50 [2]: 13 µM | IC50 (breast - MCF-7): 10 ± 0.8 µM | IC50 (prostatic - PC-3): 16 ± 1.3 µM | IC50 (tubulin): 5.26 ± 0.16 µM | IC50 (colon - HCT-116): 19 ± 1.5 µM
SMILES: Cc1ccc(/C=C/C(=O)c2sc(SCC(=O)Nc3nc(-c4ccccc4)cs3)nc2C)cc1 [Compound 10d, (E)-2-((4-methyl-5-(3-(p-tolyl)acryloyl)thiazol-2-yl)thio)-N-(4-phenylthiazol-2-yl)acetamide]
Average of Relative viability of cells (%) (- MDAMB-231; MDAMB-231, 1.56 µM): 89.2% | Average of Relative viability of cells (%) (- MDAMB-231; MDAMB-231, 3.125 µM): 69.3% | Average of Relative viability of cells (%) (- MDAMB-231; MDAMB-231, 6.25 µM): 60.4% | Average of Relative viability of cells (%) (- MDAMB-231; MDAMB-231, 12.5 µM): 31.6% | Average of Relative viability of cells (%) (- MDAMB-231; MDAMB-231, 25 µM): 25.8% | Average of Relative viability of cells (%) (- MDAMB-231; MDAMB-231, 50 µM): 16.9% | Average of Relative viability of cells (%) (- MDAMB-231; MDAMB-231, 100 µM): 13.9% | viability at 96 h, 50 µM [1]: 90% | Average of Relative viability of cells (%) (breast - MCF-7; MCF-7, 1.56 µM): 97.5% | Average of Relative viability of cells (%) (breast - MCF-7; MCF-7, 3.125 µM): 84.1% | Average of Relative viability of cells (%) (breast - MCF-7; MCF-7, 6.25 µM): 57.3% | Average of Relative viability of cells (%) (breast - MCF-7; MCF-7, 12.5 µM): 39.2% | Average of Relative viability of cells (%) (breast - MCF-7; MCF-7, 25 µM): 22.6% | Average of Relative viability of cells (%) (breast - MCF-7; MCF-7, 50 µM): 20.4% | Average of Relative viability of cells (%) (breast - MCF-7; MCF-7, 100 µM): 8.1% | Average of Relative viability of cells (%) (prostatic - PC-3; PC-3, 1.56 µM): 100% | Average of Relative viability of cells (%) (prostatic - PC-3; PC-3, 3.125 µM): 86.5% | Average of Relative viability of cells (%) (prostatic - PC-3; PC-3, 6.25 µM): 69.6% | Average of Relative viability of cells (%) (prostatic - PC-3; PC-3, 12.5 µM): 52.3% | Average of Relative viability of cells (%) (prostatic - PC-3; PC-3, 25 µM): 36.4% | Average of Relative viability of cells (%) (prostatic - PC-3; PC-3, 50 µM): 27.9% | Average of Relative viability of cells (%) (prostatic - PC-3; PC-3, 100 µM): 18.7% | Tub %inh (tubulin; conc 0.1 (unit not given)): 17.5% | Tub K.Activity (tubulin; conc 0.1 (unit not given)): 98.945 | Tub %inh (tubulin; conc 1 (unit not given)): 26.6% | Tub K.Activity (tubulin; conc 1 (unit not given)): 88.129 | Tub %inh (tubulin; conc 10 (unit not given)): 45.2% | Tub K.Activity (tubulin; conc 10 (unit not given)): 65.722 | Tub %inh (tubulin; conc 50 (unit not given)): 71.7% | Tub K.Activity (tubulin; conc 50 (unit not given)): 33.903 | Tub %inh (tubulin; conc 100 (unit not given)): 91.1% | Tub K.Activity (tubulin; conc 100 (unit not given)): 10.641 | Average of Relative viability of cells (%) (colon - HCT-116; HCT-116, 1.56 µM): 100% | Average of Relative viability of cells (%) (colon - HCT-116; HCT-116, 3.125 µM): 91.5% | Average of Relative viability of cells (%) (colon - HCT-116; HCT-116, 6.25 µM): 73.6% | Average of Relative viability of cells (%) (colon - HCT-116; HCT-116, 12.5 µM): 50.2% | Average of Relative viability of cells (%) (colon - HCT-116; HCT-116, 25 µM): 41.9% | Average of Relative viability of cells (%) (colon - HCT-116; HCT-116, 50 µM): 29.7% | Average of Relative viability of cells (%) (colon - HCT-116; HCT-116, 100 µM): 22.4%

SMILES: Cc1ccc(-c2csc(NC(=O)CSc3nc(C)c(C(=O)/C=C/c4ccc(F)cc4)s3)n2)cc1 [Compound 10m, (E)-2-((5-(3-(4-fluorophenyl)acryloyl)-4-methylthiazol-2-yl)thio)-N-(4-(p-tolyl)thiazol-2-yl)acetamide]
IC50 (pancreatic - MDAMB-231): 20 ± 1.6 µM | Average of Relative viability of cells (%) (- MDAMB-231; MDAMB-231, 1.56 µM): 100% | Average of Relative viability of cells (%) (- MDAMB-231; MDAMB-231, 3.125 µM): 87.1% | Average of Relative viability of cells (%) (- MDAMB-231; MDAMB-231, 6.25 µM): 68.5% | Average of Relative viability of cells (%) (- MDAMB-231; MDAMB-231, 12.5 µM): 55.2% | Average of Relative viability of cells (%) (- MDAMB-231; MDAMB-231, 25 µM): 43.7% | Average of Relative viability of cells (%) (- MDAMB-231; MDAMB-231, 50 µM): 32.3% | Average of Relative viability of cells (%) (- MDAMB-231; MDAMB-231, 100 µM): 24.8% | viability at 96 h, 50 µM [1]: 87% | Reduced potency compared to doxorubicin (GI50) [2]: at least 2.5 fold | Reduced potency compared to sorafenib (GI50) [2]: ≥ 1.5 fold | IC50 [2]: 29 µM | Average of Relative viability of cells (%) (breast - MCF-7; MCF-7, 1.56 µM): 100% | Average of Relative viability of cells (%) (breast - MCF-7; MCF-7, 3.125 µM): 91.6% | Average of Relative viability of cells (%) (breast - MCF-7; MCF-7, 6.25 µM): 72.7% | Average of Relative viability of cells (%) (breast - MCF-7; MCF-7, 12.5 µM): 53.5% | Average of Relative viability of cells (%) (breast - MCF-7; MCF-7, 25 µM): 37.2% | Average of Relative viability of cells (%) (breast - MCF-7; MCF-7, 50 µM): 28.4% | Average of Relative viability of cells (%) (breast - MCF-7; MCF-7, 100 µM): 22.3% | IC50 (breast - MCF-7): 18 ± 1.4 µM | Average of Relative viability of cells (%) (prostatic - PC-3; PC-3, 1.56 µM): 100% | Average of Relative viability of cells (%) (prostatic - PC-3; PC-3, 3.125 µM): 98.5% | Average of Relative viability of cells (%) (prostatic - PC-3; PC-3, 6.25 µM): 84.1% | Average of Relative viability of cells (%) (prostatic - PC-3; PC-3, 12.5 µM): 70.2% | Average of Relative viability of cells (%) (prostatic - PC-3; PC-3, 25 µM): 57.4% | Average of Relative viability of cells (%) (prostatic - PC-3; PC-3, 50 µM): 46.7% | Average of Relative viability of cells (%) (prostatic - PC-3; PC-3, 100 µM): 36.8% | IC50 (prostatic - PC-3): 43 ± 2.5 µM | Tub. enzyme inhibition assay %inhibition (tubulin; conc 0.01 (unit not given)): 5.97% | Tub. enzyme inhibition assay K. Activity (tubulin; conc 0.01 (unit not given)): 112.84 | Tub. enzyme inhibition assay %inhibition (tubulin; conc 0.1 (unit not given)): 16.8% | Tub. enzyme inhibition assay K. Activity (tubulin; conc 0.1 (unit not given)): 99.836 | Tub. enzyme inhibition assay %inhibition (tubulin; conc 1 (unit not given)): 30% | Tub. enzyme inhibition assay K. Activity (tubulin; conc 1 (unit not given)): 84.045 | Tub. enzyme inhibition assay %inhibition (tubulin; conc 10 (unit not given)): 58% | Tub. enzyme inhibition assay K. Activity (tubulin; conc 10 (unit not given)): 50.371 | Tub. enzyme inhibition assay %inhibition (tubulin; conc 100 (unit not given)): 81.2% | Tub. enzyme inhibition assay K. Activity (tubulin; conc 100 (unit not given)): 22.611 | IC50 (tubulin): 7.92 ± 0.29 µM | Tub. (IC50) IC50±SD (tubulin; supplement raw data, lab codes): 4.039 ± 0.15 µg/mL | Average of Relative viability of cells (%) (colon - HCT-116; HCT-116, 1.56 µM): 100% | Average of Relative viability of cells (%) (colon - HCT-116; HCT-116, 3.125 µM): 99.8% | Average of Relative viability of cells (%) (colon - HCT-116; HCT-116, 6.25 µM): 87.4% | Average of Relative viability of cells (%) (colon - HCT-116; HCT-116, 12.5 µM): 67.3% | Average of Relative viability of cells (%) (colon - HCT-116; HCT-116, 25 µM): 54.1% | Average of Relative viability of cells (%) (colon - HCT-116; HCT-116, 50 µM): 43.7% | Average of Relative viability of cells (%) (colon - HCT-116; HCT-116, 100 µM): 28.4% | IC50 (colon - HCT-116): 35 ± 2.2 µM
